Experimental data published in patent US20240140944A1, “NOVEL NAPHTHYRIDINONE DERIVATIVE HAVING INHIBITORY ACTIVITY AGAINST ECTONUCLEOTIDE PYROPHOSPHATASE-PHOSPHODIESTERASE AND USE THEREOF” (TXINNO BIOSCIENCE INC., priority 2020, published 2024).

Tests used:
[1] = target: T1, human recombinant ENPP1 enzymes (Homo sapiens, UniProt P22413); experiment: ENPP1 Enzyme Assay with cGAMP Substrate (AMP-Glo); type: biochemical; settings: human recombinant ENPP1 3 ng/reaction, cGAMP 5 μM, 37° C. 90 minutes, average of two or more tests; read-out: Enzymatic activity IC50
T1 construct: purchased R & D systems
T1 sequence (P22413 1-925): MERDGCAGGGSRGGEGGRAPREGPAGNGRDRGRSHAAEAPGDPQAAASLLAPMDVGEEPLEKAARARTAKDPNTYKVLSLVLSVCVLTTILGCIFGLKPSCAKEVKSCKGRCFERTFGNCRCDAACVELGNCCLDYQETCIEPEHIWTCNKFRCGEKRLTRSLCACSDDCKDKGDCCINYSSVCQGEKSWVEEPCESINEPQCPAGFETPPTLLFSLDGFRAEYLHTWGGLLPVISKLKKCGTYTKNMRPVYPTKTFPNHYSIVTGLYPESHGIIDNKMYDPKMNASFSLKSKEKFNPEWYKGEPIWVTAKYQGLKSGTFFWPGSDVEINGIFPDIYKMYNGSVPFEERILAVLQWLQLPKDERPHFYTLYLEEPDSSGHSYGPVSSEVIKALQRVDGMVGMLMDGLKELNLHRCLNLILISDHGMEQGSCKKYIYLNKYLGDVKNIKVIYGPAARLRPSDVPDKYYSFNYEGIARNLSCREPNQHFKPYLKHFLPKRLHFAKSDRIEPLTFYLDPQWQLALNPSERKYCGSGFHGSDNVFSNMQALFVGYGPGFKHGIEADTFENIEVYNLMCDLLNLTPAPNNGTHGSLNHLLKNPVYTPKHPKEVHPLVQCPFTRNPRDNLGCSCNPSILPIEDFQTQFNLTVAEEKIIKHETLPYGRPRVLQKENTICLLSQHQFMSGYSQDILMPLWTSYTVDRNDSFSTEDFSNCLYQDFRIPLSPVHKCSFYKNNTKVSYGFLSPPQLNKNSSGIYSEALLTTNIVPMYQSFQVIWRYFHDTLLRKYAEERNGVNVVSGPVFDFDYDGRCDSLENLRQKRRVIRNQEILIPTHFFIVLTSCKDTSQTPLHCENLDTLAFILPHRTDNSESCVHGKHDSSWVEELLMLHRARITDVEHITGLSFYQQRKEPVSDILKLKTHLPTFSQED
In short: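 Human recombinant ENPP1 (3 ng/reaction) preincubated 5–10 min at RT with inhibitor, then reacted with 5 µM cGAMP for 90 min at 37 °C in 50 mM Tris pH 8.5, 250 mM NaCl, 0.5 mM CaCl2, 1 µM ZnCl2, 1% DMSO. AMP produced read by AMP-Glo luminescence; IC50 from 3-parameter fit, averaged over ≥2 runs.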

[2] = test system: interferon regulatory factor 3 (IRF3) in HCT116-Dual cells; experiment: HCT116-Dual Cell Luciferase Assay (ISG54 promoter, IRF3 activity); type: cell-based; settings: ENPP1 inhibitor usually 10 μM plus cGAMP 10 μM, 48 hours, Lucia luciferase
From the text: HCT116-Dual™ cells express genes encoding luciferase secreted under the control of the interferon-stimulated gene 54 (ISG54) promoter along with five interferon-stimulated response elements. The HCT116-Dual™ cell line was used to measure and monitor the activity of interferon regulatory factor 3 (IRF3), which induces production of type I interferon and relates to downstream signaling, and Lucia secreted in the culture medium was used to generate luminescence in a luciferase reaction.
HCT116-Dual™ cells were cultured at 2×10^4 cells/well (93.4 μL) in a 96-well plate for one day in a DMEM medium containing 10% FBS and 25 mM HEPES (pH 7.2-7.5). The cells were treated with 3.3 μL of ENPP1 inhibitor (usually 10 μM) and then 3.3 μL of cGAMP (10 μM) to set the final volume to 100 μL (The final fraction of DMSO was 0.1%). The cells treated with ENPP1 inhibitor and cGAMP were cultured at 37° C. for 48 hours and 50 μL of Quanti-Luc reaction solution was added to 20 μL of cell culture medium to measure luciferase activity. The increase in interferon regulatory factor 3 (IRF3) by the compound compared to cGAMP was determined as fold.

Row | IC50 [1] | SMILES | Cellular activity: increase in IRF3 by the compound compared to cGAMP, as fold [2]
1 | < 1000 nM | NS(=O)(=O)NCc1cccc(-c2ccnc3c2CCC(=O)N3)c1 [Example 140, N-(3-(7-oxo-5,6,7,8-tetrahydro-1,8-naphthyridin-4-yl)benzyl)sulfamide] | B (1< Fold <2)
2 | < 1000 nM | NS(=O)(=O)NCc1ccc(-c2ccnc3c2CCC(=O)N3)cc1F [Example 142, N-(2-fluoro-4-(7-oxo-5,6,7,8-tetrahydro-1,8-naphthyridin-4-yl)benzyl)sulfamide] | B (1< Fold <2)
3 | < 1000 nM | Cl.NS(=O)(=O)N1CCc2ccc(-c3ccnc4c3CCC(=O)N4)cc2C1 [Example 145, (7-(7-oxo-5,6,7,8-tetrahydro-1,8-naphthyridin-4-yl)-3,4-dihydroisoguinolin-2(1H)-yl)sulfamide hydrochloride] | B (1< Fold <2)
